Results reported in patent publication US9943507B2, “Treatment of pancreatic and related cancers with 5-acyl-6,7-dihydrothieno[3,2-c]pyridines” (Memorial Sloan-Kettering Cancer Center, priority 2012, dated 2018).

Assays:
Hhat [1] = biological target: T1, Hhat (Homo sapiens, UniProt Q5VTY9); test: Hhat activity assay (SPA, P100 membranes from HA-Hhat transfected 293FT cells); type: biochemical; details: 12.5 μM compound, 125I-iodo-palmitoylCoA, Shh biotinylated peptide
T1 construct: expressed in transfected cells; host or cells: 293FT cells (P100 membrane fraction)
Protocol: Hhat activity assay: Five μl of 10 mM MES, pH 6.5 buffer was dispensed within each well of a 384-well white/clear-bottom plate (Greiner Bio-One, Kremsmuenster, Austria) using a Thermo Multi-Drop Combi dispenser. […] Percent inhibition for each experimental point was determined by the formula: [(high control−compound)/(high control−low control)]*100.

Hhat [2] = biological target: T1, Hhat; test: In vitro Hhat activity assay with purified enzyme and ShhN recombinant protein (IC50); type: biochemical; details: saturating substrate; purified enzyme, 0.7 μM ShhN recombinant protein, 18 μM 125I-iodo-palmitoylCoA
Protocol: Expression and purification of recombinant Shh were carried out as described in Buglino, J. A. and Resh, M. D. “Hhat is a palmitoylacyl transferase with specificity for N-palmitoylation of sonic hedgehog”. J. Biol. Chem. 283, 22076-22088 (2008) and Buglino, J. A. and Resh, M. D. “Identification of conserved regions and residues within Hedgehog acyltransferase critical for palmitoylation of Sonic Hedgehog”. PLoS One 5, e11195 (2010). N-terminally 6×His tagged human Shh 24-197 with an enterokinase cleavage site immediately upstream of residue 24 was amplified using full length Shh as a template. The purified PCR product was ligated in NcoI and BamHI cut PET19b (Novagen). C24S and C24A constructs were generated by site directed mutagenesis using the Quick Change mutagenesis kit. All mutations were confirmed by sequencing. […] Protein concentration was measured using the DC protein assay (BioRad). […]
HhatHAFlagHis was purified as follows. […] Protein concentrations were determined using the DC Protein Assay. The concentration of the final Flag eluate was determined from the absorbance at 280 nm using an extinction coefficient of 193045 cm^−1M^−1. […]

[3] = system: AsPC1 (human pancreatic adenocarcinoma) cells; test: Human pancreatic adenocarcinoma cell assay; type: cell-based; details: day six, FIG. 3
Protocol: Human pancreatic adenocarcinoma cell assay: 5000 AsPC1 (human pancreatic adenocarcinoma) cells were plated in each well of a 384-well black/clear-bottom tissue culture plate (Greiner Bio-One, Kremsmuenster, Austria), using Thermo Multi-Drop Combi dispenser. The plates were incubated at 37° C. for 24 h before compounds were dispensed using a Janus “Varispan” automated syringe pipette at 50 μM final concentration. High control (DMSO only) and low control (cell media only) rows were included in each plate. After 48 h incubation, Alamar Blue (Invitrogen) was added to each well in 1:100 ratio. 4 h later, cell viability was assessed by measuring fluorescence on a Perkin-Elmer EnVision plate reader.
Compound 13 was tested in the human pancreatic adenocarcinoma cell assay. The results are shown graphically in FIG. 3. At 10 μM it reduced the proliferation of human pancreatic cancer cells 50% at day six. At 20 μM it reduced the proliferation of human pancreatic cancer cells by 70% at day six.

T1 sequence (Q5VTY9 whole entry): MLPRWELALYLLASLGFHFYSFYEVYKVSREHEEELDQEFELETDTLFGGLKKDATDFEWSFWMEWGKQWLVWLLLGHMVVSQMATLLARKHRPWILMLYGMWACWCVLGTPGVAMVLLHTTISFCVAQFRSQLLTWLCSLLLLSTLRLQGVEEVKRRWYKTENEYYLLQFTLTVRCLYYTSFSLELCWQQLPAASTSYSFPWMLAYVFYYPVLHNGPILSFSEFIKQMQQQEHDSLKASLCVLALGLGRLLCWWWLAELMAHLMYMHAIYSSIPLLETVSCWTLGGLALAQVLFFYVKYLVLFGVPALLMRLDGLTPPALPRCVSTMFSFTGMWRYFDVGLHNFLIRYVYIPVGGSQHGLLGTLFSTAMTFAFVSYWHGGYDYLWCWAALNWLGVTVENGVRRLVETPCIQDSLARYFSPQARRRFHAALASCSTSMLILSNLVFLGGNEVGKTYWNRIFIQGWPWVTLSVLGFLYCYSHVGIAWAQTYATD

SMILES	inhibition at 12.5 µM (Hhat [1]) [%]	IC50 (Hhat [2]) [µM]	reduction of proliferation of human pancreatic cancer cells ([3]; 10 μM) [%]	reduction of proliferation of human pancreatic cancer cells ([3]; 20 μM) [%]
C=CCNCC(=O)N1CCc2sccc2C1c1ccccc1 (centres unmarked) [Example 5]	95.6			
CCC(C)CNCC(=O)N1CCc2sccc2C1c1cccc(C)c1 (centres unmarked) [Example 13]		2.05	50	70
CCC(C)CNCC(=O)N1CCc2sccc2C1c1cccc(C)n1 (centres unmarked) [Example 14]		0.68		
